In PubChem BioAssay (NCI) one finds GI50 and TGI data, which are given here for eight molecules.

Where “and” joins values, the source holds several entries; their conditions need not be identical. Equal entries are not always repeated.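 Test compounds were applied to cells in 96-well plates for 48 hours at 5 doses. GI50 is the concentration that inhibits growth by half. Definition used: TGI = concentration required for complete inhibition of growth.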

Test systems include OVCAR-3 ovarian; MALME-3M melanoma; OVCAR-8 ovarian; NCI-H226 lung; SF-268 CNS; SK-MEL-2 melanoma; KM12 colon; UACC-257 melanoma; HS 578T breast; COLO 205 colon.
What all share (test): DTP human tumour cell line panel, 48 h

In the case of `CCCCCOC(=O)c1c(C)[nH]c(/C=C2\N=C(c3ccc[nH]3)C=C2OC)c1C`, the concentration for 50% growth inhibition (GI50) with OVCAR-3 ovarian is 0.0423 µM; in the experiment with MALME-3M melanoma it was 0.32 µM; in the experiment with OVCAR-8 ovarian, 0.0373 µM; in the experiment on NCI-H226 lung, 0.222 µM; with SF-268 CNS, 0.0302 µM; with SK-MEL-2 melanoma it was 0.0222 µM. In addition, the GI50 in the experiment on KM12 colon is 0.0301 µM; in the experiment on UACC-257 melanoma, 0.0953 µM; in the experiment with HS 578T breast, 0.0211 µM; in the experiment with COLO 205 colon, 0.0331 µM. The TGI in the experiment on OVCAR-3 ovarian was determined as 0.615 µM; in the experiment on MALME-3M melanoma it was 1.97 µM; in the experiment on OVCAR-8 ovarian, 1.18 µM; with NCI-H226 lung, 2.13 µM; in the experiment with SF-268 CNS, 1.87 µM; with SK-MEL-2 melanoma, 0.0681 µM. The TGI worked out at 1.54 µM in the experiment on KM12 colon, 1.28 µM in the experiment with UACC-257 melanoma, 0.172 µM in the experiment on HS 578T breast and 1.04 µM in the experiment on COLO 205 colon.
Turning to `COc1ccc(CC(C)NCC(O)c2ccc(O)c(NC=O)c2)cc1` (stereo not drawn), the concentration for total growth inhibition (TGI) in the experiment on OVCAR-3 ovarian, with MALME-3M melanoma, in the experiment with OVCAR-8 ovarian, in the experiment on NCI-H226 lung, in the experiment on SF-268 CNS and with SK-MEL-2 melanoma was more than 100 µM throughout. Moreover, the TGI in the experiment on KM12 colon, in the experiment on UACC-257 melanoma, in the experiment with HS 578T breast and in the experiment with COLO 205 colon was more than 100 µM in each case.
For the molecule `COc1ccc2c(c1[N+](=O)[O-])CC[C@@H]1[C@@H]2CC[C@]2(C)C(=O)CC[C@@H]12`, the GI50 in the experiment with OVCAR-3 ovarian is 631 µM; with MALME-3M melanoma it was more than 748 µM; with OVCAR-8 ovarian, 462 µM; in the experiment with NCI-H226 lung, 494 µM; with SF-268 CNS it was 342 µM; with SK-MEL-2 melanoma, 275 µM. In addition, the GI50 with KM12 colon is more than 1000 µM; in the experiment with UACC-257 melanoma, more than 931 µM; in the experiment with HS 578T breast, 119 µM; in the experiment on COLO 205 colon, more than 1000 µM. In addition, the concentration for total growth inhibition (TGI) in the experiment with OVCAR-3 ovarian, in the experiment with OVCAR-8 ovarian, with SF-268 CNS, in the experiment with KM12 colon and in the experiment on UACC-257 melanoma was more than 1000 µM throughout.
Take `N#Cc1cnc2ccc(NCc3cnc[nH]3)cc2c1Nc1ccc(F)c(Cl)c1`: the GI50 with OVCAR-3 ovarian is 3.38 µM; in the experiment with MALME-3M melanoma, 11.9 µM; in the experiment with OVCAR-8 ovarian, 4.51 µM; in the experiment on NCI-H226 lung, more than 100 µM; in the experiment with SF-268 CNS, 5.97 µM; in the experiment with SK-MEL-2 melanoma, 6.34 µM. Moreover, the GI50 was more than 100 µM in the experiment with KM12 colon, 86 µM with UACC-257 melanoma, 4.79 µM with HS 578T breast and more than 100 µM in the experiment with COLO 205 colon. Besides, the total growth inhibition concentration (TGI) in the experiment with OVCAR-3 ovarian is more than 100 µM; with MALME-3M melanoma it was 36.1 µM; in the experiment on OVCAR-8 ovarian, more than 100 µM; in the experiment with NCI-H226 lung, more than 100 µM; with SF-268 CNS, more than 100 µM; with SK-MEL-2 melanoma it was more than 100 µM. Also, the concentration for total growth inhibition (TGI) in the experiment with KM12 colon, in the experiment with UACC-257 melanoma, in the experiment on HS 578T breast and in the experiment with COLO 205 colon was more than 100 µM throughout.
Consider `CC[C@@H]1C(=O)N(C)c2cnc(Nc3ccc(C(=O)NC4CCC(N5CCN(CC6CC6)CC5)CC4)cc3OC)nc2N1C(C)C` (stereo partly drawn), for which the concentration for 50% growth inhibition (GI50) in the experiment with OVCAR-3 ovarian is 0.013 µM and < 0.0161 µM; in the experiment on MALME-3M melanoma it was 0.607 µM and 1.39 µM; in the experiment with OVCAR-8 ovarian, 0.0242 µM and 0.033 µM; in the experiment on SF-268 CNS, 0.0586 µM and 0.0485 µM; with SK-MEL-2 melanoma it was 0.0221 µM and 0.0351 µM; in the experiment with KM12 colon, 0.0069 µM and < 0.01 µM. In addition, the GI50 with UACC-257 melanoma is 0.22 µM and 0.046 µM; with HS 578T breast, 0.0323 µM and 0.111 µM; in the experiment on COLO 205 colon, 0.00438 µM and < 0.01 µM. The TGI is > 4.91 µM and 3.08 µM in the experiment with MALME-3M melanoma; > 10 µM and 1.65 µM in the experiment on OVCAR-8 ovarian; more than 10 µM with NCI-H226 lung; > 10 µM and 7.8 µM with SF-268 CNS; 1.97 µM and 2.27 µM in the experiment with SK-MEL-2 melanoma; > 10 µM and 8.15 µM with KM12 colon. In addition, the TGI in the experiment with UACC-257 melanoma is > 5.86 µM and 1.75 µM; in the experiment on HS 578T breast it was 1.97 µM; with COLO 205 colon, 0.276 µM and 0.268 µM.
`N#Cc1nc2cc(Cl)c(Cl)cc2nc1-c1ccc(Cl)cc1`: the GI50 in the experiment with OVCAR-3 ovarian was 1.89 µM; with MALME-3M melanoma, more than 42.2 µM; with OVCAR-8 ovarian, 55.7 µM; in the experiment with NCI-H226 lung it was 21.7 µM; in the experiment on SF-268 CNS it was 27.4 µM; in the experiment with SK-MEL-2 melanoma, more than 56 µM. Further, the GI50 is more than 60.5 µM with KM12 colon, 97.4 µM with UACC-257 melanoma, 17.1 µM with HS 578T breast and more than 76.3 µM in the experiment with COLO 205 colon. Further, the TGI in the experiment on OVCAR-3 ovarian is more than 47.8 µM; in the experiment with MALME-3M melanoma, more than 100 µM; in the experiment on OVCAR-8 ovarian it was more than 100 µM; with NCI-H226 lung, more than 61.6 µM; in the experiment on SF-268 CNS, more than 72.7 µM; with SK-MEL-2 melanoma it was more than 100 µM. Further, the TGI in the experiment with KM12 colon was more than 100 µM; in the experiment with UACC-257 melanoma, more than 100 µM; in the experiment on HS 578T breast, 70.2 µM; with COLO 205 colon, more than 100 µM.
Turning to `CN1CCN(CCCOC(=O)c2c3c(n4ccccc24)C(=O)c2ncccc2C3=O)CC1`, the GI50 was 0.0403 µM with OVCAR-3 ovarian; 0.0265 µM with MALME-3M melanoma; less than 0.011 µM in the experiment with OVCAR-8 ovarian; 0.0178 µM in the experiment with NCI-H226 lung; less than 0.01 µM in the experiment with SF-268 CNS; 0.0313 µM in the experiment with SK-MEL-2 melanoma. In addition, the GI50 was 0.0669 µM in the experiment with KM12 colon, 0.0219 µM in the experiment on UACC-257 melanoma, less than 0.0268 µM with HS 578T breast and less than 0.0332 µM in the experiment with COLO 205 colon. The total growth inhibition concentration (TGI) in the experiment with OVCAR-3 ovarian came out at 4.95 µM; in the experiment with MALME-3M melanoma it was 1.14 µM; with OVCAR-8 ovarian it was 11.9 µM; with NCI-H226 lung, 1.08 µM; with SF-268 CNS it was 10.3 µM; in the experiment with SK-MEL-2 melanoma it was 0.274 µM. Besides, the TGI in the experiment with KM12 colon amounted to 13.8 µM; in the experiment on UACC-257 melanoma, 1.3 µM; with HS 578T breast it was 1.15 µM; with COLO 205 colon, 1.17 µM.
Take `CN1CCN(c2cc(F)c(NC3=C(Cl)C(=O)c4ncccc4C3=O)c(F)c2)CC1`: the GI50 was 0.539 µM in the experiment on OVCAR-3 ovarian; 1.65 µM with MALME-3M melanoma; 1.86 µM with OVCAR-8 ovarian; 15.7 µM in the experiment on NCI-H226 lung; 1.7 µM in the experiment with SF-268 CNS; 1.77 µM with SK-MEL-2 melanoma. Moreover, the GI50 is 2.01 µM in the experiment with KM12 colon, 1.43 µM in the experiment with UACC-257 melanoma, 2.02 µM with HS 578T breast and 2 µM in the experiment with COLO 205 colon. Moreover, the concentration for total growth inhibition (TGI) with OVCAR-3 ovarian is 2 µM; with MALME-3M melanoma, 3.12 µM; in the experiment with OVCAR-8 ovarian, 4 µM; in the experiment with NCI-H226 lung, 39.5 µM; in the experiment with SF-268 CNS, 3.44 µM; in the experiment with SK-MEL-2 melanoma, 3.6 µM. The TGI in the experiment with KM12 colon worked out at 4.3 µM; with UACC-257 melanoma, 2.78 µM; with HS 578T breast it was 5.67 µM; with COLO 205 colon it was 4.06 µM.
